# Source: PubChem BioAssay (NCI)
#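 These data come from cells grown in 96-well plates and exposed to compound for 48 hours at five concentrations. TGI: concentration producing complete growth inhibition.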
# How the values were obtained:
# Test in all cases: NCI-60 cell line screen, 48 h
# [1] = tested on: DMS 273 small cell lung
# [2] = tested on: COLO 205 colon
# [3] = tested on: KM20L2 colon
# [4] = tested on: UACC-257 melanoma
# [5] = tested on: CCRF-CEM leukemia
# [6] = tested on: TK-10 renal
# [7] = tested on: DLD-1 colon
# [8] = tested on: SF-539 CNS
# [9] = tested on: SNB-19 CNS
# [10] = tested on: M19-MEL melanoma
# [11] = tested on: HOP-62 NSCLC
# [12] = tested on: 786-0 renal
# [13] = tested on: HCC-2998 colon
# [14] = tested on: SK-MEL-28 melanoma
# [15] = tested on: NCI-H522 lung
# [16] = tested on: HT29 colon
# [17] = tested on: HOP-18 NSCLC
# [18] = tested on: MALME-3M melanoma
# [19] = tested on: NCI-H23 lung
# [20] = tested on: SF-268 CNS
# [21] = tested on: ACHN renal
# [22] = tested on: OVCAR-4 ovarian
# [23] = tested on: LXFL 529 NSCLC
# [24] = tested on: NCI-H226 lung
# [25] = tested on: RXF 393 renal
# [26] = tested on: LOX IMVI melanoma
# [27] = tested on: HOP-92 NSCLC
# [28] = tested on: U251 CNS
# [29] = tested on: RPMI-8226 leukemia
# [30] = tested on: A498 renal
# [31] = tested on: A549 NSCLC
# [32] = tested on: EKVX NSCLC
# [33] = tested on: SF-295 CNS
# [34] = tested on: NCI-H460 lung
# [35] = tested on: UO-31 renal
# [36] = tested on: SNB-75 CNS
# [37] = tested on: KM12 colon
# [38] = tested on: SK-MEL-2 melanoma
# [39] = tested on: IGROV1 ovarian
# [40] = tested on: OVCAR-8 ovarian
# [41] = tested on: OVCAR-3 ovarian
# [42] = tested on: MOLT-4 leukemia
# [43] = tested on: HCT-15 colon
# [44] = tested on: M14 melanoma
# [45] = tested on: HCT-116 colon
# [46] = tested on: SK-OV-3 ovarian
# [47] = tested on: SK-MEL-5 melanoma
# [48] = tested on: SNB-78 CNS
# [49] = tested on: DMS 114 small cell lung
# [50] = tested on: CAKI-1 renal
# [51] = tested on: SN12C renal
# [52] = tested on: OVCAR-5 ovarian
# [53] = tested on: K-562 leukemia
# [54] = tested on: SW-620 colon
# [55] = tested on: RXF-631 renal
# [56] = tested on: HL-60(TB) leukemia
# [57] = tested on: SR leukemia
# [58] = tested on: UACC-62 melanoma
# [59] = tested on: XF 498 CNS
compound,measurement,setting,value
Clc1c(Cl)c2c(Cl)c(Cl)c1C[P+](c1ccccc1)(c1ccccc1)CC[P+](c1ccccc1)(c1ccccc1)Cc1c(Cl)c(Cl)c(c(Cl)c1Cl)C[P+](c1ccccc1)(c1ccccc1)CC[P+](c1ccccc1)(c1ccccc1)C2,TGI,[1],6.59 µM
same,TGI,[2],2.89 µM
same,TGI,[3],12.9 µM
same,TGI,[4],6.38 µM
same,TGI,[5],9.63 µM
same,TGI,[6],9.41 µM
same,TGI,[7],13.2 µM
same,TGI,[8],16.2 µM
same,TGI,[9],13.4 µM
same,TGI,[10],9.91 µM
same,TGI,[11],18.5 µM
same,TGI,[12],19.5 µM
same,TGI,[13],14.5 µM
same,TGI,[14],5.13 µM
same,TGI,[15],9.26 µM
same,TGI,[16],10.3 µM
same,TGI,[17],20.6 µM
same,TGI,[18],7 µM
same,TGI,[19],5.25 µM
same,TGI,[20],12.6 µM
same,TGI,[21],17.6 µM
same,TGI,[22],8.59 µM
same,TGI,[23],8.12 µM
same,TGI,[24],20.2 µM
same,TGI,[25],10.9 µM
same,TGI,[26],7.89 µM
same,TGI,[27],6.31 µM
same,TGI,[28],12.4 µM
same,TGI,[29],4.78 µM
same,TGI,[30],24.4 µM
same,TGI,[31],18.8 µM
same,TGI,[32],21.7 µM
same,TGI,[33],12.6 µM
same,TGI,[34],12.4 µM
same,TGI,[35],21.2 µM
same,TGI,[36],14.2 µM
same,TGI,[37],6.12 µM
same,TGI,[38],6.09 µM
same,TGI,[39],12.4 µM
same,TGI,[40],19 µM
same,TGI,[41],8.97 µM
same,TGI,[42],10.5 µM
same,TGI,[43],24.6 µM
same,TGI,[44],16.2 µM
same,TGI,[45],9.71 µM
same,TGI,[46],21.7 µM
same,TGI,[47],3.13 µM
same,TGI,[48],18.9 µM
same,TGI,[49],3.7 µM
same,TGI,[50],33.1 µM
same,TGI,[51],15.3 µM
same,TGI,[52],13.2 µM
same,TGI,[53],9.17 µM
same,TGI,[54],13.6 µM
same,TGI,[55],23.7 µM
CCN(CC)C(=O)COc1ccc(Br)cc1Br,TGI,[1],> 100 µM
same,TGI,[56],> 100 µM
same,TGI,[2],> 100 µM
same,TGI,[3],> 100 µM
same,TGI,[4],> 100 µM
same,TGI,[5],> 100 µM
same,TGI,[6],> 100 µM
same,TGI,[7],> 100 µM
same,TGI,[8],> 100 µM
same,TGI,[9],> 100 µM
same,TGI,[10],> 100 µM
same,TGI,[11],> 100 µM
same,TGI,[12],> 100 µM
same,TGI,[13],> 100 µM
same,TGI,[14],> 100 µM
same,TGI,[15],> 100 µM
same,TGI,[16],> 100 µM
same,TGI,[17],> 100 µM
same,TGI,[18],> 100 µM
same,TGI,[19],> 100 µM
same,TGI,[57],> 100 µM
same,TGI,[20],> 100 µM
same,TGI,[21],> 100 µM
same,TGI,[22],> 100 µM
same,TGI,[58],> 100 µM
same,TGI,[23],> 100 µM
same,TGI,[24],> 100 µM
same,TGI,[25],> 100 µM
same,TGI,[26],> 100 µM
same,TGI,[27],> 100 µM
same,TGI,[28],> 100 µM
same,TGI,[29],> 100 µM
same,TGI,[30],> 100 µM
same,TGI,[31],> 100 µM
same,TGI,[32],58 µM
same,TGI,[33],> 100 µM
same,TGI,[34],> 100 µM
same,TGI,[35],> 100 µM
same,TGI,[36],> 100 µM
same,TGI,[37],> 100 µM
same,TGI,[38],> 100 µM
same,TGI,[41],> 100 µM
same,TGI,[42],> 100 µM
same,TGI,[43],> 100 µM
same,TGI,[44],> 100 µM
same,TGI,[45],> 100 µM
same,TGI,[46],> 100 µM
same,TGI,[47],> 100 µM
same,TGI,[48],> 100 µM
same,TGI,[49],> 100 µM
same,TGI,[50],> 100 µM
same,TGI,[51],> 100 µM
same,TGI,[52],> 100 µM
same,TGI,[53],> 100 µM
same,TGI,[54],> 100 µM
same,TGI,[55],> 100 µM
Nc1ccn(C2CC(CO)C(O)C2O)c(=O)n1 (stereo unspecified),TGI,[1],> 57.7 µM
same,TGI,[56],> 57.7 µM
same,TGI,[2],> 57.7 µM
same,TGI,[3],> 57.7 µM
same,TGI,[4],> 57.7 µM
same,TGI,[6],> 57.7 µM
same,TGI,[7],> 57.7 µM
same,TGI,[8],> 57.7 µM
same,TGI,[9],> 57.7 µM
same,TGI,[10],> 57.7 µM
same,TGI,[11],> 57.7 µM
same,TGI,[12],> 57.7 µM
same,TGI,[13],> 57.7 µM
same,TGI,[14],> 57.7 µM
same,TGI,[15],> 57.7 µM
same,TGI,[17],> 57.7 µM
same,TGI,[18],> 57.7 µM
same,TGI,[57],> 57.7 µM
same,TGI,[20],> 57.7 µM
same,TGI,[21],> 57.7 µM
same,TGI,[22],> 57.7 µM
same,TGI,[58],> 57.7 µM
same,TGI,[23],> 57.7 µM
same,TGI,[24],> 57.7 µM
same,TGI,[25],> 57.7 µM
same,TGI,[28],> 57.7 µM
same,TGI,[29],> 57.7 µM
same,TGI,[30],> 57.7 µM
same,TGI,[31],> 57.7 µM
same,TGI,[32],> 57.7 µM
same,TGI,[34],> 57.7 µM
same,TGI,[35],> 57.7 µM
same,TGI,[36],> 57.7 µM
same,TGI,[37],> 57.7 µM
same,TGI,[38],> 57.7 µM
same,TGI,[39],> 57.7 µM
same,TGI,[40],> 57.7 µM
same,TGI,[41],> 57.7 µM
same,TGI,[42],> 57.7 µM
same,TGI,[43],> 57.7 µM
same,TGI,[44],> 57.7 µM
same,TGI,[45],> 57.7 µM
same,TGI,[46],> 57.7 µM
same,TGI,[47],> 57.7 µM
same,TGI,[48],> 57.7 µM
same,TGI,[49],> 57.7 µM
same,TGI,[50],> 57.7 µM
same,TGI,[51],> 57.7 µM
same,TGI,[53],> 57.7 µM
same,TGI,[54],> 57.7 µM
same,TGI,[55],> 57.7 µM
C1=Cc2nc1c(-c1ccncc1)c1ccc([n-]1)c(-c1ccncc1)c1nc(c(-c3ccncc3)c3ccc([n-]3)c2-c2ccncc2)C=C1.[Zn+2],TGI,[56],> 100 µM
same,TGI,[2],> 100 µM
same,TGI,[3],> 100 µM
same,TGI,[4],> 100 µM
same,TGI,[5],> 100 µM
same,TGI,[6],> 100 µM
same,TGI,[7],> 100 µM
same,TGI,[8],> 100 µM
same,TGI,[9],> 100 µM
same,TGI,[10],> 100 µM
same,TGI,[11],> 100 µM
same,TGI,[12],> 100 µM
same,TGI,[13],> 100 µM
same,TGI,[14],> 100 µM
same,TGI,[15],> 100 µM
same,TGI,[16],> 100 µM
same,TGI,[18],> 100 µM
same,TGI,[19],> 100 µM
same,TGI,[20],> 100 µM
same,TGI,[21],> 100 µM
same,TGI,[22],> 100 µM
same,TGI,[58],> 100 µM
same,TGI,[23],> 100 µM
same,TGI,[24],> 100 µM
same,TGI,[26],> 100 µM
same,TGI,[27],> 100 µM
same,TGI,[28],> 100 µM
same,TGI,[29],> 100 µM
same,TGI,[31],> 100 µM
same,TGI,[32],> 100 µM
same,TGI,[33],> 100 µM
same,TGI,[34],> 100 µM
same,TGI,[35],> 100 µM
same,TGI,[36],> 100 µM
same,TGI,[37],> 100 µM
same,TGI,[38],> 100 µM
same,TGI,[39],> 100 µM
same,TGI,[40],> 100 µM
same,TGI,[41],> 100 µM
same,TGI,[42],> 100 µM
same,TGI,[43],> 100 µM
same,TGI,[44],> 100 µM
same,TGI,[59],> 100 µM
same,TGI,[45],> 100 µM
same,TGI,[46],> 100 µM
same,TGI,[47],> 100 µM
same,TGI,[48],> 100 µM
same,TGI,[49],> 100 µM
same,TGI,[50],> 100 µM
same,TGI,[51],> 100 µM
same,TGI,[52],> 100 µM
same,TGI,[53],> 100 µM
same,TGI,[54],> 100 µM
same,TGI,[55],> 100 µM
